Key:
[1] = system: mice with staggered lesions; test: Basso Mouse Scale (BMS) open field locomotion after staggered T7/T10 lateral hemisections; format: in vivo; details: for stepping ability / functional recovery (BMS), chronic compound treatment: daily i.p. treatment from 1 week after injury, BMS about 24 h after previous dose, FIG. 1E, 7A
Description: A staggered lesion paradigm was optimized in which two lateral hemisections were performed at the thoracic (T) 7 and T10 levels simultaneously (FIGS. 1A and 1B), similar to the model previously described (Courtine 2008; van den Brand, 2012). The T10 lesion is a lateral hemisection that ends at the spinal cord midline, while the T7 lesion, contralateral to the T10 lesion, extends slightly beyond the midline (FIG. 1A). With this double hemisection procedure, all descending axons passing T10 are severed, leaving only those crossing the midline between T7 and T10 intact (FIG. 1C). Indeed, by immunohistochemistry with anti-5-HT antibodies, which label serotonergic axons, descending serotonergic axons could be detected in the spinal cord segments between the lesions, but not in the lumbar spinal cord (FIG. 1C). Thus, a relay zone remains between and around the lesions (T7 and T10) where descending axons terminate, and where some propriospinal neurons maintain their connections with lumbar spinal neurons (see herein below).
This double hemisection SCI model was used to seek small molecule compounds that could reactivate the spared, but dormant, spinal connections by monitoring hindlimb motor performance during over-ground locomotion. To this end, daily compound treatment was started 1 week after injury and then monitored the BMS scores approximately 24 hours after the previous day's compound treatment on a weekly basis (FIG. 1D). Behavioral outcomes observed at these time points likely reflect sustained effects of the treatment, which are more clinically relevant.
Surgical Procedures. The procedure of T7 and T10 double lateral hemisection was similar to that described elsewhere (Courtine et al., 2008; van den Brand et al., 2012). Briefly, a midline incision was made over the thoracic vertebrae, followed by a T7-10 laminectomy. For the T7 right side over-hemisection, a scalpel and micro-scissors were carefully used to interrupt the bilateral dorsal column at T7, and ensured no sparing of ventral pathways on the contralateral side (FIG. 1A). For the T10 left hemisection, a scalpel and micro-scissors were carefully used to interrupt only the left side of the spinal cord until the midline. The muscle layers were then sutured, and the skin was secured with wound clips. All animals received post hoc histological analysis, and those with spared 5HT axons at the lumbar spinal cord (L2-5) were excluded for behavioral analysis (FIG. 7).
(§1) Behavioral Experiments. Motor function was evaluated with a locomotor open field rating scale on the Basso Mouse Scale (BMS). For transient pharmacological treatments, ten to fifteen minutes (van den Brand et al., 2012) prior to behavioral tests (grounding walking, all of which were performed individually), mice received systematic administration (i.p.) of the neural modulators listed above. It is important to note that with a single intraperitoneal injection, plasma CNO levels peak at 15 min and become very low by 2 h after injection (Guettier et al., 2009). For chronic pharmacological treatments, 24 hours prior to behavioral tests, mice received systematic administration of the compounds listed above. All behavioral tests were completed within 1-3 hours. For detailed hindlimb kinematic analysis, mice from different groups were placed in the MotoRater (TSE Systems, (Zorner et al., 2010)), and all kinematic analysis was performed based on data collected by the MotoRater.

[2] = Guettier et al., 2009, cited from earlier work
[3] = system: neuropathic pain; details: animal models; Gagnon et al., 2013; Ferrini et al., 2017; Knabl et al., 2008; cited from earlier work
[4] = system: c-Fos; test: c-Fos immunoreactivity in spinal cord segments between T7 and T10 after 1 hour walking; format: in vivo, mouse; details: chronic treatment
From the text: In mature neurons, GABA and glycine are inhibitory because they open chloride channels, which allow chloride ion influx leading to hyperpolarization. In contrast, during development, the elevated intracellular chloride levels render GABAA- and glycine-mediated currents depolarizing and generally excitatory. During early postnatal life, KCC2 upregulation in postnatal neurons is crucial for reducing intracellular chloride concentrations, transforming excitation into inhibition (Ben-Ari et al., 2012; Kaila et al., 2014). Thus, injury-induced KCC2 down-regulation (Boulenguez et al., 2010; Cote et al., 2014) would be expected to restore an immature state in which GABA and glycine receptors can depolarize neurons. In this scenario, KCC2 activation in spinal inhibitory neurons would transform local circuits in the relay zone towards a more physiological state, which is more receptive to descending inputs. To examine this, c-Fos immunoreactivity was used as a proxy of neuronal activity in the spinal cord segments between T7 and T10 at 8 weeks after injury, and after walking on a treadmill for 1 hour. In each group, the majority of c-Fos-positive cells in these spinal segments were also positively stained with NeuN, a neuronal marker (FIG. 11A, 11B). In injured mice without treatment, the c-Fos-positive neurons were concentrated in the dorsal horn of the spinal cord (FIG. 5A-5C), perhaps reflecting hypersensitivity to peripheral sensory inputs in these injured mice. […] This KCC2-transformed distribution pattern is similar to what was detected in intact mice, in response to walking (FIG. 5A-5C).
Immunohistochemistry and Imaging. The paraformaldehyde (PFA) fixed tissues were cryo-protected with 30% sucrose and processed using cryostat (section thickness 40 μm for spinal cord). Sections were treated with a blocking solution containing 10% normal donkey serum with 0.5% Triton-100 for 2 hours at room temperature before staining. The primary antibodies (4 □, overnight) used were: rabbit anti-GFAP [DAKO (Z0334), 1:600]; rabbit anti-5-HT [Immunostar (20080), 1:5,000]; chicken anti-GFP [Abcam (ab13970), 1:400]; rabbit anti-RFP [Abcam (ab34771), 1:400]; rabbit anti-PKCγ [Santa Cruz (sc211), 1:100]; rat anti-HA [Sigma (11867423001), 1:200]; rabbit anti-c-Fos [Cell signaling (2250s), 1:100]; and mouse anti-NeuN [Millipore (MAB377), 1:400]. Secondary antibodies (room temperature, 2 h) included: Alexa Fluor 488-conjugated donkey anti chicken and rabbit; and Alexa Fluor 594-conjugated donkey anti rabbit (all from Invitrogen). c-Fos immunoreactivity of spinal neurons was determined as previously described (Courtine et al., 2009), after 1-hour of continuous quadrupedal free walking (intact), stepping (CLP290 or AAV-KCC2 treated mice) or dragging (vehicle or AAV-GFP treated mice). The mice were returned to their cages, and were then anesthetized and sacrificed by intracardial perfusion of 4% PFA (wt/vol) in phosphate buffered saline (PBS) about 2 hours later.

[5] = system: mice with a complete T8 spinal cord transection; test: BMS open field locomotion after complete T8 spinal cord transection; format: in vivo, mouse; details: T8 complete transection, FIG. 7F
From the text: CLP290's effects could result from reactivating the spared dormant descending connections in the spinal cord after SCI. However, it could also act directly on the lumbar spinal cord, independently of descending inputs. […] Therefore, different from this transient effector that acts directly on the lumbar spinal cord, the effects of CLP290 on functional improvement are dependent on spared connections.
The procedure of T8 full transection was similar to that described elsewhere (Courtine et al., 2009). Briefly, a midline incision was made over the thoracic vertebrae, followed by a T8 laminectomy. The complete T8 transection was then performed carefully using both a scalpel and micro-scissors. The muscle layers were then sutured and the skin was secured with wound clips.
as §1

[6] = T8/9, 8 weeks after injury, FIG. 5A-5C

SMILES: CCCCNc1cc(C(=O)O)cc(S(N)(=O)=O)c1Oc1ccccc1 [Bumetanide]
- stepping ability / functional recovery (BMS), chronic compound treatment [1]: some effects, but without statistical significance

SMILES: C[N+]1([O-])CCN(C2=Nc3cc(Cl)ccc3Nc3ccccc32)CC1 [CNO, Clozapine N-oxide]
- plasma CNO levels ([2]; by 2 h after single intraperitoneal injection): very low
- time of peak plasma CNO levels ([2]; single intraperitoneal injection): 15 min

SMILES: Cn1ncnc1COc1nn2c(-c3cc(F)ccc3F)nnc2cc1C(C)(C)C [L838,417]
- stepping ability / functional recovery (BMS), chronic compound treatment [1]: failed to promote functional motor recovery
- effect on neuropathic pain [3]: reduce neuropathic pain
- c-Fos-positive neurons in the dorsal horn (laminae I-V) [4, 6]: reduced c-Fos-positive neurons in dorsal horn
- c-Fos-positive neurons in the intermediate/ventral spinal cord [4, 6]: without increasing those in intermediate zones and ventral region
- neuronal activation levels across spinal cord regions ([4]; staggered injured mice): reduced neuronal activation levels in all spinal cord regions

SMILES: c1ccc2nc(N3CCNCC3)ccc2c1 [quipazine]
- BMS improvement measured acutely after compound administration ([1]; staggered lesion, 8 weeks after SCI, FIG. 7B): rapid, but transient, BMS improvement
- duration of acute BMS improvement / locomotion after administration ([1]; staggered lesion, FIG. 7B): less than 2 hours
- start of acute BMS improvement after administration ([1]; staggered lesion, FIG. 7B): 10 min
- BMS improvement measured acutely after compound administration ([5]; 8 weeks, no chronic treatment): rapid, but transient, BMS improvement
- duration of acute BMS improvement / locomotion after administration [5]: less than 2 hours
- start of acute BMS improvement after administration [5]: 10 min

— patent US20210254101A1, “METHODS FOR TREATING SPINAL CORD INJURY” (THE CHILDREN'S MEDICAL CENTER CORPORATION, priority 2018, published 2021)
